Structures are written as SMILES. Where only a bound is given, the exact number is not on record here.

Holding throughout (type): in vivo
One experiment relates to Venturia inaequalis. The experiment can be described thus: Apple Scab (VENTIN) fungicidal activity on apple seedlings. The conditions noted are these: 24 h, 1 Day Protectant, read-out: VENTIN 1 DP disease control. As to the method: Technical grades of materials were dissolved in acetone, which were then mixed with nine volumes of water (H2O) containing 110 ppm Triton X-100. The fungicide solutions were applied onto wheat seedlings using an automated booth sprayer to run-off. All sprayed plants were allowed to air dry prior to further handling. All fungicides were evaluated using the aforementioned method for their activity vs. all target diseases, unless stated otherwise. Wheat leaf blotch and brown rust activity were also evaluated using track spray applications, in which case the fungicides were formulated as EC formulations, containing 0.1% Trycol 5941 in the spray solutions. Wheat plants (variety Yuma) were grown from seed in a greenhouse in 50% mineral soil/50% soil-less Metro mix until the first leaf was fully emerged, with 7-10 seedlings per pot. These plants were inoculated with an aqueous spore suspension of Septoria tritici either prior to or after fungicide treatments. After inoculation the plants were kept in 100% relative humidity (one day in a dark dew chamber followed by two to three days in a lighted dew chamber at 20° C.) to permit spores to germinate and infect the leaf. The plants were then transferred to a greenhouse set at 20° C. for disease to develop. When disease symptoms were fully expressed on the 1st leaves of untreated plants, infection levels were assessed on a scale of 0 to 100 percent disease severity. Percent disease control was calculated using the ratio of disease severity on treated plants relative to untreated plants. Example D: Evaluation of Fungicidal Activity: Apple Scab (Venturia inaequalis; Bayer code […]) Apple seedlings (variety McIntosh) were grown in soil-less Metro mix, with one plant per pot. Seedlings with two expanding young leaves at the top (older leaves at bottom of the plants were trimmed) were used in the test. Plants were inoculated with a spore suspension of Venturia inaequalis 24 h after fungicide treatment and kept in a 22° C. dew chamber with 100% relative humidity for 48 h, and then moved to a greenhouse set at 20° C. for disease to develop. Fungicide formulation, application and disease assessment on the sprayed leaves followed the procedures as described in the Example A.

The subject of a further experiment is Cercospora beticola. The experiment can be described thus: Leaf Spot of Sugar Beets (CERCBE) fungicidal activity on sugar beet plants. The following applies: 24 h, 1 Day Protectant, read-out: CERCBE 1 DP disease control. As to the method: Technical grades of materials were dissolved in acetone, which were then mixed with nine volumes of water (H2O) containing 110 ppm Triton X-100. The fungicide solutions were applied onto wheat seedlings using an automated booth sprayer to run-off. All sprayed plants were allowed to air dry prior to further handling. All fungicides were evaluated using the aforementioned method for their activity vs. all target diseases, unless stated otherwise. Wheat leaf blotch and brown rust activity were also evaluated using track spray applications, in which case the fungicides were formulated as EC formulations, containing 0.1% Trycol 5941 in the spray solutions. Wheat plants (variety Yuma) were grown from seed in a greenhouse in 50% mineral soil/50% soil-less Metro mix until the first leaf was fully emerged, with 7-10 seedlings per pot. These plants were inoculated with an aqueous spore suspension of Septoria tritici either prior to or after fungicide treatments. After inoculation the plants were kept in 100% relative humidity (one day in a dark dew chamber followed by two to three days in a lighted dew chamber at 20° C.) to permit spores to germinate and infect the leaf. The plants were then transferred to a greenhouse set at 20° C. for disease to develop. When disease symptoms were fully expressed on the 1st leaves of untreated plants, infection levels were assessed on a scale of 0 to 100 percent disease severity. Percent disease control was calculated using the ratio of disease severity on treated plants relative to untreated plants. Example E: Evaluation of Fungicidal Activity: Leaf Spot of Sugar Beets (Cercospora beticola; Bayer code CERCBE) Sugar beet plants (variety HH88) were grown in soil-less Metro mix and trimmed regularly to maintain a uniform plant size prior to test. Plants were inoculated with a spore suspension 24 h after fungicide treatments. Inoculated plants were kept in a dew chamber at 22° C. for 48 h then incubated in a greenhouse set at 24° C. under a clear plastic hood with bottom ventilation until disease symptoms were fully expressed. Fungicide formulation, application and disease assessment on the sprayed leaves followed the procedures as described in the Example A.

The next experiment has as its system Rhyncosporium secalis. As to the kind of experiment: Barley Scald (RHYNSE) fungicidal activity on barley seedlings. The conditions noted are these: Hordeum vulgare, 24 h, 1 Day Protectant, read-out: RHYNSE 1 DP disease control. On the procedure: Technical grades of materials were dissolved in acetone, which were then mixed with nine volumes of water (H2O) containing 110 ppm Triton X-100. The fungicide solutions were applied onto wheat seedlings using an automated booth sprayer to run-off. All sprayed plants were allowed to air dry prior to further handling. All fungicides were evaluated using the aforementioned method for their activity vs. all target diseases, unless stated otherwise. Wheat leaf blotch and brown rust activity were also evaluated using track spray applications, in which case the fungicides were formulated as EC formulations, containing 0.1% Trycol 5941 in the spray solutions. Wheat plants (variety Yuma) were grown from seed in a greenhouse in 50% mineral soil/50% soil-less Metro mix until the first leaf was fully emerged, with 7-10 seedlings per pot. These plants were inoculated with an aqueous spore suspension of Septoria tritici either prior to or after fungicide treatments. After inoculation the plants were kept in 100% relative humidity (one day in a dark dew chamber followed by two to three days in a lighted dew chamber at 20° C.) to permit spores to germinate and infect the leaf. The plants were then transferred to a greenhouse set at 20° C. for disease to develop. When disease symptoms were fully expressed on the 1st leaves of untreated plants, infection levels were assessed on a scale of 0 to 100 percent disease severity. Percent disease control was calculated using the ratio of disease severity on treated plants relative to untreated plants. Example G: Evaluation of Fungicidal Activity: Barley Scald (Rhyncosporium secalis; Bayer code […]) Barley seedlings (variety Harrington) were propagated in soil-less Metro mix, with each pot having 8 to 12 plants, and used in the test when the first leaf was fully emerged. Test plants were inoculated by an aqueous spore suspension of Rhyncosporium secalis 24 h after fungicide treatments. After inoculation the plants were kept in a dew room at 20° C. with 100% relative humidity for 48 h. The plants were then transferred to a greenhouse set at 20° C. for disease to develop. Fungicide formulation, application and disease assessment on the sprayed leaves followed the procedures as described in the Example A.

Take `COc1ccnc(C(=O)N[C@@H](C)C(=O)O[C@@H](C)C(c2ccccc2)c2ccccc2)c1OC(C)=O` [Cmpd 139, (S)-(S)-1,1-diphenylpropan-2-yl 2-(3-acetoxy-4-methoxypicolinamido)propanoate]: the pest or weed control at 100 ppm in the experiment with Venturia inaequalis, in the experiment on Cercospora beticola and with Rhyncosporium secalis was above 80% each time.

As to `COc1ccnc(C(=O)N[C@@H](C)C(=O)O[C@@H](C)C(c2ccc(F)cc2F)c2ccc(F)cc2F)c1OC(C)=O` [Cmpd 150], the pest or weed control at 100 ppm in the experiment with Venturia inaequalis, in the experiment on Cercospora beticola and in the experiment with Rhyncosporium secalis was above 80% throughout.

`COc1ccnc(C(=O)N[C@@H](C)C(=O)O[C@@H](C)C(c2ccc(Cl)cc2)c2ccc(Cl)cc2)c1OCOC(C)=O` [Cmpd 176]: the pest or weed control at 100 ppm with Venturia inaequalis, with Cercospora beticola and with Rhyncosporium secalis was above 80% each time.

With `COc1ccnc(C(=O)N[C@@H](C)C(=O)O[C@@H](C)C(c2ccccc2)c2ccccc2)c1OC(=O)C(C)C` [Cmpd 140], the pest or weed control at 100 ppm in the experiment with Venturia inaequalis and in the experiment on Cercospora beticola was above 80% in each case.

Regarding `COc1ccnc(C(=O)N[C@@H](C)C(=O)O[C@@H](C)C(c2ccc(F)cc2)c2ccc(F)cc2)c1OCOC(C)=O` [Cmpd 146], the pest or weed control at 100 ppm in the experiment with Venturia inaequalis, in the experiment with Cercospora beticola and in the experiment on Rhyncosporium secalis was above 80% each time.

Regarding `COc1ccnc(C(=O)N[C@@H](C)C(=O)O[C@@H](C)C(c2ccc(F)cc2)c2ccc(F)cc2)c1OC(C)=O` [Cmpd 145], the pest or weed control at 100 ppm in the experiment on Venturia inaequalis, in the experiment on Cercospora beticola and in the experiment on Rhyncosporium secalis was above 80% each time.

For `COc1ccnc(C(=O)N[C@@H](C)C(=O)O[C@@H](C)C(c2ccccc2)c2ccccc2)c1OCOC(C)=O` [Cmpd 141, (S)-(S)-1,1-diphenylpropan-2-yl 2-(3-(acetoxymethoxy)-4-methoxypicolinamido)propanoate], the pest or weed control at 100 ppm with Venturia inaequalis, in the experiment on Cercospora beticola and in the experiment on Rhyncosporium secalis was above 80% throughout.

Consider `COc1ccnc(C(=O)N[C@@H](C)C(=O)O[C@@H](C)C(c2ccccc2)c2ccccc2)c1OCOC(=O)C(C)C` [Cmpd 142, (S)-(S)-1,1-diphenylpropan-2-yl 2-(3-((isobutyryloxy)methoxy)-4-methoxypicolinamido)propanoate], for which the pest or weed control at 100 ppm in the experiment on Venturia inaequalis, with Cercospora beticola and in the experiment with Rhyncosporium secalis was above 80% each time.

Turning to `COc1ccnc(C(=O)N[C@@H](C)C(=O)O[C@@H](C)C(c2ccc(F)cc2F)c2ccc(F)cc2F)c1OCOC(C)=O` [Cmpd 148], the pest or weed control at 100 ppm in the experiment on Venturia inaequalis, in the experiment on Cercospora beticola and with Rhyncosporium secalis was above 80% throughout.

For `COc1ccnc(C(=O)N[C@@H](C)C(=O)O[C@@H](C)C(c2ccc(Cl)cc2)c2ccc(Cl)cc2)c1OC(C)=O` [Cmpd 174], the values for the pest or weed control at 100 ppm in the experiment with Venturia inaequalis, with Cercospora beticola and in the experiment with Rhyncosporium secalis were below 80%, above 80% and above 80%, respectively.

The record behind these values is patent US20240423207A1, “PICOLINAMIDE COMPOUNDS WITH FUNGICIDAL ACTIVITY” (CORTEVA AGRISCIENCE LLC, priority 2014, published 2024).
